For the experiment, the system named is 299254-011-R-J1-PDC complex spheroids viability. Nature of the experiment: Anticancer human tumor 299254-011-R-J1-PDC patient-derived melanoma cell line growth inhibition [GQUAD]. Conditions: for viability, T/C: stronger effect = lower value. The source says:
DNA G-quadruplex Stabilizer Agents in Combinations in Complex Spheroids
A high-throughput screen of multi-cell type tumor spheroids was designed to identify active combinations of DNA G-quadruplex stabilizer agents and targeted small molecules. Complex spheroids include a stromal component modeled by human endothelial cells (HUVEC) and fibroblasts modeled by human mesenchymal stem cells (MSCs). The concentration ranges selected for each drug and investigational agent were based upon clinically achievable concentrations if the clinical Cmax of the agent was known.
Compounds. The drugs and investigational agents: pidnarulex (CX-5461; NSC782164), APTO-253 (NSC789042), BRACO-19 (NSC847499), peposertib (NSC802822), ceralasertib (NSC780249), elimusertib (NSC800525), camonsertib (NSC841442), AZD-1390 (NSC803789), olaparib (NSC753686), talazoparib (NSC767125), ART-558 (NSC835418), sotorasib (NSC818433), MRTX-1133 (NSC836407), SN-38 (NSC673596), topotecan (NSC609699), etoposide (NSC141540), doxorubicin (NSC123127), gemcitabine (NSC613327), 5-fluorouracil (NSC19893), paclitaxel (NSC125973), vemurafenib (NSC761431), panobinostat (NSC761190), R-306465 (JNJ-16241199; NSC773264), adavosertib (NSC754352), TP-3654 (NSC805149), carboplatin (NSC241240), KSQ-4279 (NSC840948), and staurosporine (NSC755774) were obtained from the National Cancer Institute (NCI) Developmental Therapeutics Program Chemical Repository (34). The FDA-approved anticancer drug set is available from the NCI Developmental Therapeutics Program. […] The stock solutions were prepared in dimethyl sulfoxide (DMSO, Sigma-Aldrich, St. Louis, MO, cat. D2650) at 800-fold the tested concentration and stored at -70 degrees C prior to their use. All drugs and investigational agents were tested over a range starting from a high concentration at or near the clinical Cmax and decreasing in half-log increments. If the clinical Cmax for an agent had not been determined, the highest concentration tested was 10 microM.
2.3 Cell Culture. All cells were maintained in an incubator at 37 degrees C and 5% CO2 with 95% humidity. The PDC lines were cultured according to standard operating procedures established by the NCI PDMR. All PDCs were thawed and cultured in Matrigel-coated flasks prepared with a working solution of 1X Ham's F-12 nutrient mix, without supplementation (Invitrogen, cat. 11765054), 100 U/mL penicillin-streptomycin (Invitrogen, cat. 15140122), and 2.5% Matrigel (Corning Inc., cat. 354248) for the first three passages. The 857933-349-R-J2-PDC line was cultured in 6C/Colon 1B media, which includes advanced DMEM/F-12 (Thermo Fisher Scientific, cat. 12634028), 10 mM HEPES (Thermo Fisher Scientific, cat. 15630080), 1X GlutaMAX supplement (Thermo Fisher Scientific, cat. 35050061), 0.1 mg/mL primocin (InvivoGen, cat. ant-pm-2), 10% defined fetal bovine serum, heat inactivated (HyClone Laboratories Inc., cat. SH30070.03HI), 50% L-WRN conditioned media (ATCC, cat. CRL-3276), 1.25 mM N-Acetyl-L-cysteine (Sigma-Aldrich, cat. A9165), 10 mM nicotinamide (Sigma-Aldrich, cat. N0636), 1X B-27 supplement (Thermo Fisher Scientific, cat. 17504044), 1X N-2 supplement (Thermo Fisher Scientific, cat. 17502048), 10 microM Y-27632 dihydrochloride (Tocris Bioscience, cat. 1254), and 50 ng/mL human EGF recombinant protein (Thermo Fisher Scientific, cat. PHG0311). The 485176-168-R4-J1-PDC line was cultured in Panc media, which includes all 6C/Colon 1B media components plus 100 ng/mL human FGF-10 (Thermo Fisher Scientific, cat. 100-26), 500 nM SB-431542 (Selleckchem, cat. S1067), and gastrin (Tocris, cat. 3006).
[…]

The mark [1] stands for this setting: curve of first compound, second compound 0.0316 µM.
[2] abbreviates: curve of first compound, second compound 0.1 µM.
[3] abbreviates: curve of first compound, second compound 0.316 µM.
The mark [4] stands for this setting: curve of first compound, second compound 1 µM.
[5] abbreviates: curve of first compound, second compound 3.16 µM.
Setting [6] is: curve of first compound, second compound 10 µM.
Setting [7] is: second compound 0.0316 µM, first compound 0.0316 µM.
Setting [8] is: second compound 0.0316 µM, first compound 0.1 µM.
The mark [9] stands for this setting: second compound 0.0316 µM, first compound 0.316 µM.
Where [10] appears, read: second compound 0.0316 µM, first compound 1 µM.
Setting [11] is: second compound 0.0316 µM, first compound 3.16 µM.
[12] abbreviates: second compound 0.0316 µM, first compound 10 µM.
Where [13] appears, read: second compound 0.1 µM, first compound 0.0316 µM.
[14] abbreviates: second compound 0.1 µM, first compound 0.1 µM.
Setting [15] is: second compound 0.1 µM, first compound 0.316 µM.
[16] abbreviates: second compound 0.1 µM, first compound 1 µM.
Setting [17] is: second compound 0.1 µM, first compound 3.16 µM.
Setting [18] is: second compound 0.1 µM, first compound 10 µM.
The mark [19] stands for this setting: second compound 0.316 µM, first compound 0.0316 µM.
The mark [20] stands for this setting: second compound 0.316 µM, first compound 0.1 µM.
[21] abbreviates: second compound 0.316 µM, first compound 0.316 µM.
Setting [22] is: second compound 0.316 µM, first compound 1 µM.
The mark [23] stands for this setting: second compound 0.316 µM, first compound 3.16 µM.
The mark [24] stands for this setting: second compound 0.316 µM, first compound 10 µM.
Setting [25] is: second compound 1 µM, first compound 0.0316 µM.
[26] abbreviates: second compound 1 µM, first compound 0.1 µM.
Where [27] appears, read: second compound 1 µM, first compound 0.316 µM.
The mark [28] stands for this setting: second compound 1 µM, first compound 1 µM.
The mark [29] stands for this setting: second compound 1 µM, first compound 3.16 µM.
The mark [30] stands for this setting: second compound 1 µM, first compound 10 µM.
The mark [31] stands for this setting: second compound 3.16 µM, first compound 0.0316 µM.
Where [32] appears, read: second compound 3.16 µM, first compound 0.1 µM.
Where [33] appears, read: second compound 3.16 µM, first compound 0.316 µM.
Setting [34] is: second compound 3.16 µM, first compound 1 µM.
The mark [35] stands for this setting: second compound 3.16 µM, first compound 3.16 µM.
Setting [36] is: second compound 3.16 µM, first compound 10 µM.
Where [37] appears, read: second compound 10 µM, first compound 0.0316 µM.
Setting [38] is: second compound 10 µM, first compound 0.1 µM.
[39] abbreviates: second compound 10 µM, first compound 0.316 µM.
Setting [40] is: second compound 10 µM, first compound 1 µM.
[41] abbreviates: second compound 10 µM, first compound 3.16 µM.
Where [42] appears, read: second compound 10 µM, first compound 10 µM.

Here are results for six compounds from PubChem BioAssay AID2060513 (Molecular Pharmacology Branch, DTP, NCI, 2025).

Broadly, the pIC50 is the IC50 on a negative log10 scale, so that one unit is a factor of ten. The viability, T/C is the ratio of treated to control.

pIC50: −log10 of the molar value. Several values for one entry are separate records, joined by “and”; a condition that tells them apart may be missing. Identical values can stand only once.
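Also: spheroids exposed to the agents for seven days before readout.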
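For viability, T/C in this document: percent viability relative to DMSO vehicle control wells = 100%.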

As to `CC(C)n1c(=O)n(C)c2cnc3cc(F)c(-c4ccc(OCCCN5CCCCC5)nc4)cc3c21` + Cc1[nH]c2ccc(F)cc2c1-c1nc2c3cccnc3c3ncccc3c2[nH]1, the negative-log IC50 (pIC50) is, setting by setting: under setting [1], under 5.00; under setting [2], under 5.00; under setting [3], under 5.00; under setting [4], under 5.00; under setting [5], under 5.00; under setting [6], 5.01. The viability, T/C under setting [7] is 90.2%; the viability, T/C under setting [8] was 94.3%; the viability, T/C under setting [9] was 98.1%; the viability, T/C under setting [10] is 75.2%; the viability, T/C under setting [11] was 86.7%; the viability, T/C under setting [12] is 54.3%. Besides, the viability, T/C was 85.9% under setting [13]; 103% under setting [14]; 124% under setting [15]; 96.5% under setting [16]; 83.1% under setting [17]; 58.3% under setting [18]. In addition, the viability, T/C runs as follows: under setting [19], 106%; under setting [20], 98.8%; under setting [21], 105%; under setting [22], 94.2%; under setting [23], 84.4%; under setting [24], 52.4%. The viability, T/C was 83% under setting [25]; 97.7% under setting [26]; 118% under setting [27]; 115% under setting [28]; 98.8% under setting [29]; 58.1% under setting [30]. Moreover, the viability, T/C under setting [31] is 89.9%; the viability, T/C under setting [32] was 107%; the viability, T/C under setting [33] was 89.5%; the viability, T/C under setting [34] was 111%; the viability, T/C under setting [35] was 94.4%; the viability, T/C under setting [36] was 56.9%. Moreover, the viability, T/C was 96.8% under setting [37]; 107% under setting [38]; 98% under setting [39]; 84.8% under setting [40]; 96.8% under setting [41]; 49.5% under setting [42].
With `CCCS(=O)(=O)Nc1ccc(F)c(C(=O)c2c[nH]c3ncc(-c4ccc(Cl)cc4)cc23)c1F`, the viability, T/C (compound 0.0316 µM) was 130% and 120% and 109%; the viability, T/C (compound 0.1 µM) is 101% and 98.5% and 102%; the viability, T/C (compound 0.316 µM) is 92.2% and 107% and 95.9%; the viability, T/C (compound 1 µM) is 107% and 104% and 112%; the viability, T/C (compound 3.16 µM) is 80.6% and 104% and 103%; the viability, T/C (compound 10 µM) was 39.9% and 45.2% and 46.6%. The pIC50 (curve of compound) is 5.11 and 5.04 and 5.03.
For `CN(C)c1ccc(Nc2c3ccc(NC(=O)CCN4CCCC4)cc3nc3cc(NC(=O)CCN4CCCC4)ccc23)cc1`, the viability, T/C runs as follows: (compound 0.0316 µM) 95.2% [middle of 12 runs]; (compound 0.316 µM) 95.5% [middle of 12 runs]; (compound 3.16 µM) 106% [middle of 12 runs]; (compound 10 µM) 98.3% [middle of 12 runs]. The pIC50 (compound alone, run of 02/26/2024) was under 5.00.
As for `CC1COCCN1c1cc(C2(O)CC3CCC(C2)O3)c2cnn(-c3ccn[nH]3)c2n1` (stereo not given), the viability, T/C (compound 0.0316 µM) was 116% and 87.6% and 93.3%; the viability, T/C (compound 0.1 µM) is 42.7% and 48.7% and 67.2%; the viability, T/C (compound 0.316 µM) is 23.7% and 29.9% and 29.5%; the viability, T/C (compound 1 µM) is 12.7% and 12.4% and 18.8%; the viability, T/C (compound 3.16 µM) is 10.2% and 10.5% and 10.9%; the viability, T/C (compound 10 µM) was 4.19% and 8.01% and 5.02%. Moreover, under “curve of compound”, the pIC50 was 7.03 and 7.00 and 6.76.
Consider `C=CCn1c(=O)c2cnc(Nc3ccc(N4CCN(C)CC4)cc3)nc2n1-c1cccc(C(C)(C)O)n1` + Cc1[nH]c2ccc(F)cc2c1-c1nc2c3cccnc3c3ncccc3c2[nH]1, for which the negative-log IC50 (pIC50) under setting [1] is 5.71; the negative-log IC50 (pIC50) under setting [2] is 5.84; the pIC50 under setting [3] was 5.67; the pIC50 under setting [4] was 5.68; the negative logarithm of the IC50 (pIC50) under setting [5] was 5.81; the negative logarithm of the IC50 (pIC50) under setting [6] is 6.03. The viability, T/C is, setting by setting: under setting [7], 95.6%; under setting [8], 101%; under setting [9], 101%; under setting [10], 69.8%; under setting [11], 37.3%; under setting [12], 29.8%. In addition, the viability, T/C is, setting by setting: under setting [13], 117%; under setting [14], 112%; under setting [15], 115%; under setting [16], 59.2%; under setting [17], 33.2%; under setting [18], 29.2%. For the same compound, the viability, T/C under setting [19] is 108%; the viability, T/C under setting [20] is 108%; the viability, T/C under setting [21] was 94%; the viability, T/C under setting [22] was 70.4%; the viability, T/C under setting [23] was 39.1%; the viability, T/C under setting [24] is 25%. The viability, T/C is, setting by setting: under setting [25], 109%; under setting [26], 92.7%; under setting [27], 92.9%; under setting [28], 66.2%; under setting [29], 39.4%; under setting [30], 23.6%. In addition, the viability, T/C reads like this: under setting [31], 86.1%; under setting [32], 91%; under setting [33], 102%; under setting [34], 62.3%; under setting [35], 33%; under setting [36], 27.8%. Further, the viability, T/C reads like this: under setting [37], 94.4%; under setting [38], 81.9%; under setting [39], 85.9%; under setting [40], 46.9%; under setting [41], 26.4%; under setting [42], 19.4%.
For the compound `O=C(NO)c1cnc(N2CCN(S(=O)(=O)c3ccc4ccccc4c3)CC2)nc1`, the viability, T/C reads like this: (compound 0.0316 µM) 99.8% and 95.4% and 87.7%; (compound 0.1 µM) 103% and 87.4% and 81.9%; (compound 0.316 µM) 73.4% and 75% and 32.2%; (compound 1 µM) 3.62% and 4.16% and 0.67%; (compound 3.16 µM) 0.32% and 0.22%; (compound 10 µM) 0.34% and 0.21%. In addition, the pIC50 (curve of compound) was 6.33 and 6.32 and 6.68.
